PMC6108835, “Target-Based Discovery of an Inhibitor of the Regulatory Phosphatase PPP1R15B” (Cell, 2018)

What was measured:
HeLa cells [1] = assay: Assessment of translation rates (35S-methionine), HeLa cells; format: cell-based, human; settings: HeLa cells
Description: HeLa or MEF cells (90,000 cells/mL) were plated in 12-well plates (1 mL/well). The following day cells were treated as indicated; the medium was removed, fresh medium containing compound added and incubated at 37°C for the times indicated. The time course was performed in reverse order to facilitate labeling all samples at the same time. After the treatment the cells were labeled with 100 μCi/mL ^35S-methionine (Hartmann Analytic) for 10 min at 37°C (300 μL fresh medium containing 3 μL ^35S-methionine was added to each well). Note that cells were not starved in methionine-free media before labeling with ^35S-methionine for monitoring protein synthesis. The labeled cells were then washed twice with ice-cold PBS and lysed in 120 μL Laemmli Buffer. Lysates were transferred to 1.5 mL eppendorf tubes, boiled at 95°C for 5 min, sonicated and resolved on Bolt SDS-PAGE 4%–12% Bis-Tris gels (ThermoFisher Scientific). Gels were then stained with InstantBlue (Expedeon) and after the gels had been imaged they were transferred to a 20% ethanol, 7% acetic acid, 4% glycerol solution for 10 min. This was to prevent the gels from cracking while drying. The gels were transferred to filter paper and dried using a gel dryer. The gels were then exposed to a Storage Phosphor Screen (GE Healthcare) and analyzed by phosphorimaging using a Typhoon Imager Scanner (GE Healthcare).

R15a −/− cells = assay: eIF2α phosphorylation and translation rates in R15a −/− MEF cells; format: cell-based, mouse; settings: R15a −/− cells (genetic inactivation of R15A), 10 μM
Description: (§1) HeLa or MEF cells (90,000 cells/mL) were plated in 12-well plates (1 mL/well). The following day cells were treated as indicated; the medium was removed, fresh medium containing compound added and incubated at 37°C for the times indicated. The time course was performed in reverse order to facilitate collecting all samples at the same time. At the end of treatment cells were washed two times with ice-cold PBS and lysed in 150 μL Laemmli Buffer. Lysates were transferred to 1.5 mL eppendorf tubes, boiled at 95°C for 5 min, sonicated and resolved on Bolt SDS-PAGE 4%–12% Bis-Tris gels (ThermoFisher Scientific). Proteins were transferred to the nitrocellulose membrane using the iBlot 2 system (ThermoFisher Scientific). Membrane was blocked in 5% skimmed milk for 30 min and then probed with primary antibodies followed by incubation with the appropriate horseradish peroxidase-conjugated secondary antibodies (Promega). Proteins were visualized using ECL Prime (GE Healthcare) and imaged in the Chemi-Smart 5000 (Vilber-Lourmat, France) or ChemiDoc Touch (BioRad). Bands were quantified using ImageJ (NIH, USA). […]
(§2) HeLa or MEF cells (90,000 cells/mL) were plated in 12-well plates (1 mL/well). […] The gels were then exposed to a Storage Phosphor Screen (GE Healthcare) and analyzed by phosphorimaging using a Typhoon Imager Scanner (GE Healthcare).

HeLa cells [2] = assay: Monitoring cell viability (CellTox Green, IncuCyte); format: cell-based
Description: HeLa cells (40,000 cells/mL) were plated in 96-well plates (0.1 mL/well). The following day the cells were treated with different concentrations of Raphin1, in triplicate, as indicated and incubated at 37°C for 48 hr. To monitor cell death 1:2,000 dilution of the CellTox Green Dye (Promega) was added to the medium. The growth of the cells was monitored over time and pictures taken every 2 hr (two per well) with the IncuCyte ZOOM system (Essen BioScience). The default software parameters for a 96-well plate (Corning) with a 10x objective were used for imaging and the images were analyzed by the IncuCyte ZOOM software (Essen BioScience). The software was used to calculate the confluency from the two non-overlapping images of each well at each time point. The phase confluency refers to the percentage of the image area that is occupied by cells. The green confluency refers to the percentage of the image area that fluoresces green. The CellTox Green Dye (Promega) preferentially stains dead cells’ DNA, but is excluded from viable cells. To assess the effect of Raphin1 on cell viability, the percentage of dead cells was calculated as follows: %ofdeadcells=Greenconfluency(%)atXhours/Phaseconfluency(%)atXhours×100

R15b −/− cells = assay: eIF2α phosphorylation and translation rates in R15b −/− MEF cells; format: cell-based, mouse; settings: 10 μM
Description: as §1, §2

[3] = Body weight gain of wild-type mice under chronic treatment; format: in vivo, mouse; settings: various doses once a day (2 mg/kg for 10 weeks; 15 days at indicated doses)
Description: The acetate salts of Raphin1 or GBZ were dissolved in water and sonicated for 10 min. The solution was aliquoted and kept at −20°C until use. Once thawed a tube was kept at 4°C and used within 24 hr. The compounds were administered by oral gavage.
Raphin1 was administered at 2 mg/kg (unless otherwise specified). Mice received a single dose or were treated chronically – one time per day. Control mice were treated with vehicle (water) only.
Mice were weighted on a dedicated scale (A&D, FX3000iWP). 4 weeks old treatment and test naive C57BL/6J males and females (Figure 6B) and 2 months old treatment and test naive C3H/B6 males (Figure S6A) were used.

wild-type mice = assay: Fear conditioning; format: in vivo, mouse; settings: 2 mg/kg for 3 weeks
Description: Morris water maze and the following fear conditioning were performed on C57BL/6J wild-type males aged 2.5 months. Mice were treatment- and test-naive before the treatment started. Treatment with Raphin1 started two weeks before and was continued during the behavioral tests.
Testing was performed in polymodal operant chambers (Coulbourn Instruments, Allentown, PA, USA). Each chamber (18.5 × 18 × 21.5 cm) consisted of aluminum side walls and Plexiglas rear and front (the door) walls. A loudspeaker and a bright light constituted the sources of the cues during conditioning and cue-testing. The general activity of animals was recorded through the infrared cell placed at the ceiling of the chambers and was directly recorded using the Graphic State software (Coulbourn). For conditioning, mice were allowed to acclimate for 4 min, then a light/tone (10 kHz) – Conditioned Stimulus (CS) was presented for 20 s and co-terminated by a mild (1 s, 0.4 mA) footshock – an aversive Unconditioned Stimulus (US). Mice were returned to their home cages 2 min later. Testing was performed 24 hr following conditioning session. Testing for the context was performed in the morning. […] For both context and cue testing the percentage of time spent in the immobile position (% Freezing) was scored as an indicator of fear memory.

[H]/N=C(\N)NN=Cc1cccc(Cl)c1Cl [Raphin1, (E)-2-(2,3-dichlorobenzylidene)hydrazine-1-carboximidamide]
Protein synthesis (in words) (HeLa cells [1]; 20 μM): persistent inhibition
Raphin1-induced eIF2α phosphorylation and translation attenuation (HeLa cells [1]; Raphin1 10 μM in the presence of the R15A inhibitor GBZ 10 μM): persisted
Protein synthesis (in words) (HeLa cells [1]; unstressed, 10 μM): decreased
Raphin1-induced eIF2α phosphorylation and translation attenuation (R15a −/− cells): persisted
Toxicity to cells (% of dead cells) (HeLa cells [2]; 20 μM): toxic
Toxicity to cells (% of dead cells) (HeLa cells [2]; concentration corresponding to brain level after 2 mg/kg (∼1.5 μM), continuously applied for 48 hr): not toxic
Measurable effects on eIF2α phosphorylation and translation (R15b −/− cells): abolished
Adverse effects on weight gain [3]: no obvious adverse effects
Adverse effects on memory, fear-conditioning paradigm (wild-type mice): no adverse effects
